Experimental data reported in PMC11969537 (ACS Chemical Neuroscience, 2025).

Target: cathepsin B (Mus musculus, UniProt P10605)
Test: fluorogenic protease assay with Z-Phe-Arg-AMC at pH […]
Type: biochemical

Sequence of cathepsin B (P10605 80-333): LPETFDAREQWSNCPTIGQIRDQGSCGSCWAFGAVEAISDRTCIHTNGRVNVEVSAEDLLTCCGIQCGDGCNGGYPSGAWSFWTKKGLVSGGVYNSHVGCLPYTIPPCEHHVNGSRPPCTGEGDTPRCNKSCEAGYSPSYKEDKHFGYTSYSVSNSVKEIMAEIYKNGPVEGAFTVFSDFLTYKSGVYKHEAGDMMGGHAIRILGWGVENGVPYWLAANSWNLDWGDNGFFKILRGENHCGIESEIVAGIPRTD

Cc1cccc(C)c1C(=O)OCC(=O)[C@H](CCCCN)NC(=O)[C@H](CCCNC(=N)N)NC(=O)OCc1ccccc1 [Z-Arg-Lys-AOMK]
IC50: 25 nM
